According to patent publication US20260034091A1, “Compositions and Methods for Treating Metabolic Disorders” (The Regents of the University of California, priority 2022, published 2026):

Tests used:
[1] = tested on: CDAHFD diet-induced NAFLD/NASH with PPARA KO; assay: TOFA in genetic PPARA knockout mice, CDAHFD model of NAFLD/NASH; assay type: in vivo, PPARA knockout (PPARA KO) male mice
Experimental: (§1) Six-week-old genetic PPARA knockout (PPARA KO) male mice were fed with a L-amino acid diet with 60 kcal % fat with 0.1% methionine and no added choline (CDAHFD; Research Diets A06071302i) for three weeks or fed with a 60 kcal % fat diet (DIO; Research Diets A12492i) for eight weeks before introduction of either vehicle (control) or 125 mg/kg of TOFA, BID, via oral gavage for an additional two weeks (FIG. 11A and FIG. 11J, respectively). C57BL/6J (WT) mice were fed with the CDAHFD and underwent similar experimental conditions and time course. Mice weights and adverse events were monitored during the treatment time course. Upon study termination, serum and liver samples were collected. Serum liver damage biomarkers, ALT and AST, were measured by commercially available kits (abcam105134 and abcam 105135, respectively). Hepatic and serum triglyceride levels were measured from a commercially available kit (abcam65336). Total RNA was extracted from liver tissues (Qiagen RNeasy kit 74106), and cDNA was prepared (BioRAD iScript™M Reverse Transcription) according to manufacturer's protocols. Quantitative PCR (qPCR) was performed with fast SYBR Green Mix (ThermoFisher A25742) on the QuantStudio6 System (Applied Biosciences). Protein expression levels of liver samples were measured by western blot using antibodies against ACC1/2 (CST3662, 1:1000), VLDLR (AF2258, 1:2000), CPT1A (CST12252, 1:1000), PPARA (abcam126285, 1:1000) and beta-tubulin (CST2146, 1:1000). Membranes were developed using a HRP secondary antibody (1:5000) and visualized using an enhanced chemiluminescent HRP substrate (Thermo34577). Additional liver samples were fixed in 4% paraformaldehyde and embedded in paraffin blocks for sectioning and subsequently stained with hematoxylin and eosin (H&E). Frozen fresh liver tissue was embedded in OCT, sectioned, and subsequently stained with Oil Red O.

[2] = tested on: 60% HFD diet-induced obesity with PPARA KO; assay: TOFA in genetic PPARA knockout mice, 60% HFD diet-induced obesity (DIO) model; assay type: in vivo, PPARA knockout (PPARA KO) male mice
Experimental: as §1

[3] = tested on: CDAHFD induced late stage NAFLD/NASH in mice; assay: Rescue effect of TOFA in CDAHFD induced late-stage NAFLD/NASH progression; assay type: in vivo, C57BL/6 male mice; settings: 250 mg/kg daily, four weeks
Experimental: Six-week-old C57BL/6 male mice were fed with a L-Amino Acid Diet With 60 kcal % Fat With 0.1% Methionine and No Added Choline (Research Diets A06071302i) for eight weeks before introduction of either vehicle (control) or 250 mg/kg of TOFA daily via twice daily controlled oral gavage for an additional four weeks (FIG. 3A). Upon study termination at 12 weeks, serum and liver samples were collected. Serum liver damage biomarkers, ALT and AST, were measured by commercially available kits (abcam105134 and abcam 105135, respectively). Hepatic and serum triglyceride levels were measured from a commercially available kit (abcam65336). Liver samples were fixed in 4% paraformaldehyde and embedded in paraffin blocks for sectioning and subsequently stained with hematoxylin and eosin (H&E) or Picrosirius Red with a fast green dye background. Frozen fresh liver tissue was embedded in OCT, sectioned, and subsequently stained with Oil Red O.

[4] = tested on: CDAHFD mouse model of diet-induced NAFLD/NASH; assay: TOFA and Semaglutide single agent and combination in CDAHFD mouse model of NAFLD/NASH; assay type: in vivo, C57BL/6J male mice
Experimental: Six-week-old C57BL/6J male mice were fed with a L-amino acid diet with 60 kcal % fat with 0.1% methionine and no added choline (CDAHFD; Research Diets A06071302i) for eight weeks. Mice were randomly assigned to treatment groups of either a vehicle (control), 250 mg/kg of TOFA, 5 nmol/kg of Semaglutide (Novo Nordisk), or a combined dose of 250 mg/kg TOFA plus 5 nmol/kg Semaglutide. TOFA was administered by oral gavage. Semaglutide dosing was up-titrated at beginning of treatment regimen and was delivered via subcutaneous injection at the back shoulder/neck flank. All treatments were delivered QD for an additional four weeks. Mice weights and food intake were monitored during the treatment time course. Upon study termination at 12 weeks, liver and serum samples were collected. Serum liver damage biomarkers, ALT and AST, were measured by commercially available kits (abcam105134 and Cayman 701640, respectively). Hepatic and serum triglyceride levels were measured using a commercially available kit (abcam65336). Total RNA was extracted from liver tissues (Qiagen RNeasy kit 74106), and cDNA was prepared (BioRAD iScript™ Reverse Transcription) according to manufacturer's protocols. Quantitative PCR (qPCR) was performed with fast SYBR Green Mix (ThermoFisher A25742) on the QuantStudio6 System (Applied Biosciences). Additional liver samples were fixed in 4% paraformaldehyde and embedded in paraffin blocks for sectioning and subsequently stained with hematoxylin and eosin (H&E) or Sirius Red with a fast green dye background.

[5] = scored per Kleiner, et al. (2005)
[6] = four weeks, TOFA 250 mg/kg oral QD, Semaglutide 5 nmol/kg s.c. QD

Compound: CCCCCCCCCCCCCCOc1ccc(C(=O)O)o1 [TOFA, 5-(Tetradecyloxy)-2-furoic acid]
- body weight ([1]; 125 mg/kg BID oral gavage, two weeks): trending decrease in weight
- Cpt1a mRNA (RT-qPCR) ([1]; 125 mg/kg BID, two weeks): blunted
- hepatic steatosis (H&E) ([1]; 125 mg/kg BID, two weeks): minimal decreases in hepatic steatosis
- lipid content by Oil Red O ([1]; 125 mg/kg BID, two weeks): minimal changes in lipid content
- liver triglyceride (hepatic lipid levels) ([1]; 125 mg/kg BID, two weeks): no notable decrease
- serum ALT levels ([1]; 125 mg/kg BID, two weeks): marginal decreases
- serum AST levels ([1]; 125 mg/kg BID, two weeks): marginal decreases
- protein expression levels of CPT1A, VLDLR, and ACC1 (western blot) ([1]; relative to vehicle control): not observed
- body weight upon treatment start ([2]; 125 mg/kg BID oral gavage): decrease in weight
- Vldlr mRNA (RT-qPCR) ([2]; 125 mg/kg BID, two weeks): blunted response
- hepatic steatosis (H&E-stained liver sections) ([2]; 125 mg/kg BID, two weeks): minimal changes in hepatic steatosis
- serum triglyceride (serum lipid levels) ([2]; 125 mg/kg BID, two weeks): elevated serum lipid levels
- adverse events ([2]; 125 mg/kg BID, two-week treatment period): Adverse events were observed
- cytoplasmic vacuolations by H&E staining ([3]; liver sections): decreased cytoplasmic vacuolations
- fibrosis by Picrosirius Red staining ([3]; liver sections): decreased fibrosis
- lipid content by Oil Red O staining ([3]; liver sections): reduction in lipid content
- ballooning (histopathological score) [3, 5]: reductions
- degree of hepatic steatosis (histopathological score) [3, 5]: decreased degree of hepatic steatosis
- fibrosis (histopathological score) [3, 5]: reductions
- inflammation (histopathological score) [3, 5]: reductions
- liver triglyceride content ([3]; twice daily oral gavage): reduced
- serum ALT activity levels ([3]; twice daily oral gavage): significant decrease
- serum AST levels ([3]; twice daily oral gavage): averaged reduction
- serum triglyceride levels ([3]; twice daily oral gavage): no increase
- food intake ([4]; four weeks treatment): not due to changes in food intake
- body weight at the end of the treatment time course [4, 6]: smaller degree of weight loss compared to Semaglutide treated mice
- inflammation genes (RT-qPCR of liver samples) [4, 6]: specific response of TOFA in addressing inflammation
- mRNA levels of genes involved in collagen biosynthesis (RT-qPCR) [4, 6]: strong repressive effectives
- serum ALT levels [4, 6]: moderate reductions
- serum AST levels [4, 6]: only group to have demonstrated reduction
- fibrotic content (Sirius red staining) ([4]; four weeks, liver sections): aforementioned histological trends are noted
- steatosis (H&E liver sections) ([4]; four weeks, relative to control): greater reduction in steatosis
- liver triglyceride levels ([4]; four weeks, relative to vehicle control): stronger, significant reduction
